Values of other authors as cited in patent publication US20090176744A1, “Deuterated fingolimod” (CoNCERT Pharmaceuticals, Inc., priority 2007, published 2009).

Columns and labels:
[1] = renal transplant patients; reversible upon cessation of treatment (Tedesco-Silva 2004)
[2] = general finding of cited clinical studies (Kahan 2003; Budde 2002; Ferguson 2003)

## CCCCCCCCc1ccc(CCC(N)(CO)CO)cc1.Cl [fingolimod, 2-amino-2-[2-(4-octylphenyl)ethyl]-1,3-propanediol hydrochloride]
[1]
  heart rate: mild and transient reduction in heart rate
[2]
  safety and tolerability: safe and well-tolerated
